Assay results from ChEMBL document CHEMBL1201862, “PubChem BioAssay data set” (2004).
Calls of active or inactive are those of the source.

Experiments:
[1] = target: Voltage-dependent T-type calcium channel subunit alpha-1H (Homo sapiens, UniProt O95180); type: functional;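 further: channel activity triggered by adding a high calcium stimulation buffer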
Trypsin = Trypsin (Sus scrofa, UniProt P00761); assay: trypsin protease activity blockade – biochemical, quenched peptide fluorescence, cherry-pick, selectivity assay for Rce1 protease inhibitor project, dose response (AID 488789)
Trypsin, sequence (P00761 whole entry): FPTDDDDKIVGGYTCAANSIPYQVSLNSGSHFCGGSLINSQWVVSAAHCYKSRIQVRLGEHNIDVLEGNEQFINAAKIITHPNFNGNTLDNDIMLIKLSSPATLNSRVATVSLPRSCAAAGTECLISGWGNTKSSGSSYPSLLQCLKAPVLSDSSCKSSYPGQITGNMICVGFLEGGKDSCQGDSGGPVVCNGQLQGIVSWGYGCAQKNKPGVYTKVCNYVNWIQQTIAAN

[2] = viability loss of HPDE-C7K cells – cell-based, fluorescence, HTS, primary screen (AID 431); type: functional; conditions: Homo sapiens
[3] = HPDE-C7 pancreatic duct cell viability loss – fluorescence, HTS (AID 430); type: functional, cell-based; conditions: Homo sapiens
Leucine aminopeptidase = target: T1, Leucine aminopeptidase (Plasmodium falciparum 3D7, UniProt Q8IL11); assay: P. falciparum M17LAP inhibitors, primary screen, biochemical, fluorogenic H-Leu-NHMec substrate, 1536-well (AID 1619); type: functional
T1 sequence (Q8IL11 whole entry): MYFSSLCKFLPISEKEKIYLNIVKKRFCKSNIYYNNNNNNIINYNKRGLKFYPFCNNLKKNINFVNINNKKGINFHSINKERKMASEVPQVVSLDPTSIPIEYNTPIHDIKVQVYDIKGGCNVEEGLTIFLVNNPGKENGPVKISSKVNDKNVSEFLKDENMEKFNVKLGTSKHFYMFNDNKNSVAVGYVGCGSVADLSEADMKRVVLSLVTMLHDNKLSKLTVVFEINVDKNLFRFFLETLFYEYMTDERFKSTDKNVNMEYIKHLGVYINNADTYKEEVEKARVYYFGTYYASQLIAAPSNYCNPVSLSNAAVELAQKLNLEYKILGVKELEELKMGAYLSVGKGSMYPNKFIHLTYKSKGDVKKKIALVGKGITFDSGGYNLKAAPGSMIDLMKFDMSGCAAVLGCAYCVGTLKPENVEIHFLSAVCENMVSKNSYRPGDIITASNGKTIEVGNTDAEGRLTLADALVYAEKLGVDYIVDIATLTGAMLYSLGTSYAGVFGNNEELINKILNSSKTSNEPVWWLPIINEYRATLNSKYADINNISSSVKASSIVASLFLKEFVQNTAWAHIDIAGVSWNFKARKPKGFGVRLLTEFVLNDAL

[4] = target: DNA dC->dU-editing enzyme APOBEC-3G (Homo sapiens, UniProt Q9HC16); assay: Dose Response confirmation of small molecule APOBEC3G DNA Deaminase Inhibitors via a fluorescence-based single-stranded DNA deaminase assay. [Related pubchem assays (depositor defined):AID493012, AID493028]; type: functional
[5] = target: T2, Calpain-2 catalytic subunit (Sus scrofa, UniProt P43367); assay: m-calpain protease blockers, concentration series – biochemical, fluorogenic peptide substrate, dose response (AID 1420); type: functional
T2 sequence (P43367 whole entry): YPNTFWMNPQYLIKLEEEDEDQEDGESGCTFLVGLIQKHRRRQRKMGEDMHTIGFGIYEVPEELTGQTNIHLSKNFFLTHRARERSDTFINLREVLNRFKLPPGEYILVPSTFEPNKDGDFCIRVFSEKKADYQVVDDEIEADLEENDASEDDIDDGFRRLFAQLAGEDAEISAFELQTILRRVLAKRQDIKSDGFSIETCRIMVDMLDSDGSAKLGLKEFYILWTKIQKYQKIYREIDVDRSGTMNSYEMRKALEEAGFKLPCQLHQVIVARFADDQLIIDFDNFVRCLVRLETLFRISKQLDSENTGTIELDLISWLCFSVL

[6] = Luminescence Cell-Based Dose Confirmation HTS to Identify Activators of 5'UTR Stem-Loop Driven Alpha-Synuclein mRNA Translation in H4 Neuroglioblastoma Cells. [Related pubchem assays: 1829 (Project Summary), 1814 (Primary HTS)]; type: functional
[7] = Luminescence Cell-Based Dose Response HTS to Identify Activators of Luciferase Translation or Activity in H4 […] Cells. [Related pubchem assays: 1829 (Project Summary), 1814 (Primary HTS)]; type: functional
H4 = assay: Luminescence Cell-Based Dose Response HTS to Identify Activators of 5'UTR Stem-Loop Driven Prion Protein mRNA Translation in H4 Neuroglioblastoma Cells. [Related pubchem assays: 1829 (Project Summary), 1814 (Primary HTS)]; type: functional; conditions: Homo sapiens
[8] = target: Eukaryotic translation initiation factor 4E (Mus musculus, UniProt P63073); assay: blockers of eIF4G binding by eIF4E – biochemical, TR-FRET, dose response (AID 855); type: functional;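 further: potency for disrupting eIF4E binding to eIF4GI seen as loss of FRET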
Eukaryotic translation initiation factor 4E, sequence (P63073 whole entry): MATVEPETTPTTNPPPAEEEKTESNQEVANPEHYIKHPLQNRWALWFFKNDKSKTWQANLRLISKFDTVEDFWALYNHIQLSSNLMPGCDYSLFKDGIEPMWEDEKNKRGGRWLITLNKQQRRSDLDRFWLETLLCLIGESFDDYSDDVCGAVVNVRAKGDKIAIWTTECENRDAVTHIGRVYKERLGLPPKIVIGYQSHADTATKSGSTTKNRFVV

[9] = target: Peroxisome proliferator-activated receptor gamma/Nuclear receptor coactivator 2 (Homo sapiens, UniProt P37231); assay: TR-FRET dose response biochemical High Throughput Screening assay for agonists of the steroid receptor coactivator 2 (SRC-2) recruitment by the peroxisome proliferator-activated receptor gamma (PPAR gamma): non-selective agonists. [Related pubchem assays: 1297, 1032 ]; type: functional
[10] = target: Peroxisome proliferator-activated receptor gamma/Nuclear receptor coactivator 1 (Homo sapiens, UniProt P37231); assay: TR-FRET dose response biochemical High Throughput Screening assay for agonists of the steroid receptor coactivator 1 (SRC-1) recruitment by the peroxisome proliferator-activated receptor gamma (PPAR gamma): non-selective agonists. [Related pubchem assays (depositor defined):AID1300, AID1808, AID504735, AID631]; type: protein assay
[11] = target: Peroxisome proliferator-activated receptor gamma/Nuclear receptor coactivator 3 (Homo sapiens, UniProt P37231); assay: TR-FRET dose response biochemical High Throughput Screening assay for agonists of the steroid receptor coactivator 3 (SRC-3) recruitment by the peroxisome proliferator-activated receptor gamma (PPAR gamma): non-selective agonists. [Related pubchem assays: 1301 (Confirmation screen.), 1048 (Primary screen.)]; type: functional
Peroxisome proliferator-activated receptor gamma/Nuclear receptor coactivator 3, sequence (P37231 whole entry): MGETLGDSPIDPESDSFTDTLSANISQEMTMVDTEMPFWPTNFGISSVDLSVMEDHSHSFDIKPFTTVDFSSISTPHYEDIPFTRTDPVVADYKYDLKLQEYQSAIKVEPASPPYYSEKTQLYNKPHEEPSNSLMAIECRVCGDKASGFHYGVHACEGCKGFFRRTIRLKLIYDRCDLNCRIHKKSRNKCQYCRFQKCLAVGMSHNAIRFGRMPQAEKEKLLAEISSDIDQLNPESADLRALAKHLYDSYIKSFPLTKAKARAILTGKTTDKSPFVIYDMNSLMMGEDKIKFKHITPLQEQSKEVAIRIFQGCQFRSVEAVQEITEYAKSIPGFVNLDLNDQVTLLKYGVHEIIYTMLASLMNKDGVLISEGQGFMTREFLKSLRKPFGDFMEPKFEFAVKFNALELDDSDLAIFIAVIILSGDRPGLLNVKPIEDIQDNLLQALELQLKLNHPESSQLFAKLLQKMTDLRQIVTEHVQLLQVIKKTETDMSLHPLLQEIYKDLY
Peroxisome proliferator-activated receptor gamma/Nuclear receptor coactivator 3, sequence (Q9Y6Q9 whole entry, further chain): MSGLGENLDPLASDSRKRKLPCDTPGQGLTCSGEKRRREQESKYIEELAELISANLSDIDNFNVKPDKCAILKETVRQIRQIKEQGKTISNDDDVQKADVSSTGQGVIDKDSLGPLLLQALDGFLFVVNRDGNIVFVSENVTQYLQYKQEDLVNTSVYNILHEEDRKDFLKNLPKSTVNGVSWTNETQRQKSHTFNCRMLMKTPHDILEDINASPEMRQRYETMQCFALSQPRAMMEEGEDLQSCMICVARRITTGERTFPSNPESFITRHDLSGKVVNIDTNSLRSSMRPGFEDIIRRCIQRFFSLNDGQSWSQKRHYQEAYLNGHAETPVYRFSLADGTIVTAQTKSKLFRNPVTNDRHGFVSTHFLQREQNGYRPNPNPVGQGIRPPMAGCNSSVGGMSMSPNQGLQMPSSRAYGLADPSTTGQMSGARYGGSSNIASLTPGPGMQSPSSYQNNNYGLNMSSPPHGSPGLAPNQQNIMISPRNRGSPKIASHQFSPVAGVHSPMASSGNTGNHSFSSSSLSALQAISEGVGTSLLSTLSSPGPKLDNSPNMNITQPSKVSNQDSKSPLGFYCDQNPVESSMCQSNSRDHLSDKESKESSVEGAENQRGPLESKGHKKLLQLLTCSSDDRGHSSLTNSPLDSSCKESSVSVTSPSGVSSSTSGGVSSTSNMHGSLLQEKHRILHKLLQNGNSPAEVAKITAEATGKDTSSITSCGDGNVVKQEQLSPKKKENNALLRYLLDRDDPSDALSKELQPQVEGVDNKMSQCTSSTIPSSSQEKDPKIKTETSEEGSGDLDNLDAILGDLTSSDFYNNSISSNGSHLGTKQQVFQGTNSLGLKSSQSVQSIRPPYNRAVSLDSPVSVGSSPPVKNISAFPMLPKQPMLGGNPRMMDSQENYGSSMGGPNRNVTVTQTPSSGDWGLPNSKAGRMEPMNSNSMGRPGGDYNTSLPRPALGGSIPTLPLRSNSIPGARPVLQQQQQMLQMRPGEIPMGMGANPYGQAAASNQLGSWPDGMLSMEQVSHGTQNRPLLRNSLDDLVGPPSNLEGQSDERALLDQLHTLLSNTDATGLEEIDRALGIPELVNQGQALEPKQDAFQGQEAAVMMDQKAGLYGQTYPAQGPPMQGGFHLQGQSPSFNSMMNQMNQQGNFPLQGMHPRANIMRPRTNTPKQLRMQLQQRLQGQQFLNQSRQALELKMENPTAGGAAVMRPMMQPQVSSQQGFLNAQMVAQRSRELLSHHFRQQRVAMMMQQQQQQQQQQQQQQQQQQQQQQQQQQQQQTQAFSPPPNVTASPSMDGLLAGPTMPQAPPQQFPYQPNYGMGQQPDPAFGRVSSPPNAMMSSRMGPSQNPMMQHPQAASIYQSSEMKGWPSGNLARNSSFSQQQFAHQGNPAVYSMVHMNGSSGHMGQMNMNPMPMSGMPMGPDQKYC

Coagulation factor XII = target: T3, Coagulation factor XII (Homo sapiens, UniProt P00748); type: functional;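 further: activated factor XIIa alpha cleaving a fluorogenic AMC peptide substrate; inhibitor potency from loss of enzyme activity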
T3 sequence (P00748 whole entry): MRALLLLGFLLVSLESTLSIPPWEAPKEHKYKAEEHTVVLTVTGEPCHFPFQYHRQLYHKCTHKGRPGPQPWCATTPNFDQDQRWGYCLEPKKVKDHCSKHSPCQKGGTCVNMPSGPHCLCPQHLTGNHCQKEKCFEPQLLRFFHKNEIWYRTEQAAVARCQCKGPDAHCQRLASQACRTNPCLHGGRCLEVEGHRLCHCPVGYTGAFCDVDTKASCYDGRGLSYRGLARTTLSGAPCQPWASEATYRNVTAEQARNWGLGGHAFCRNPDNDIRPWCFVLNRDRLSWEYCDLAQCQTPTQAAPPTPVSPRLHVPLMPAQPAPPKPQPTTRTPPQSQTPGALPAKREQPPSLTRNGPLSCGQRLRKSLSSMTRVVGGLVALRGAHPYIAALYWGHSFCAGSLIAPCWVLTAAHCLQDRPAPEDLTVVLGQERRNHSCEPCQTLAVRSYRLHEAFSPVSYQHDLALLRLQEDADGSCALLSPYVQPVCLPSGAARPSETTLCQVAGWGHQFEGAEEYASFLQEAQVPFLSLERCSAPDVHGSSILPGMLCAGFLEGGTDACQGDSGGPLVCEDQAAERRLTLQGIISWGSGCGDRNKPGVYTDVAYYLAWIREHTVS

CAAX prenyl protease 2 = target: T4, CAAX prenyl protease 2 (Saccharomyces cerevisiae S288c, UniProt Q03530); type: biochemical
T4 sequence (Q03530 whole entry): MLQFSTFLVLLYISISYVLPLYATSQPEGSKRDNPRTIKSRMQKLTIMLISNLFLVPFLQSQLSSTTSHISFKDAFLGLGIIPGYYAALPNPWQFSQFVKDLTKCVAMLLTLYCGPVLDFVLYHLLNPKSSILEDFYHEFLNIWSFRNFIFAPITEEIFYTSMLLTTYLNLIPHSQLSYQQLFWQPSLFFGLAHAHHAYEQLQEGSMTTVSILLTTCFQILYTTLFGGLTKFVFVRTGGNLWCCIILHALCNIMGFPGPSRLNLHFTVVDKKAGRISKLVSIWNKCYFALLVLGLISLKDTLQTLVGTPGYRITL

cells [12] = type: functional, cell-based
cells [13] = type: functional, cell-based; remark: listed apart in the source
[14] = Trypanosoma cruzi growth suppression in host cells – NIH3T3 host cells, beta-gal luminescence, confirmation (AID 2044); type: functional, cell-based;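 further: intracellular parasites grown in NIH/3T3 mouse fibroblasts as host cells; luminescent beta-galactosidase reporter signal from transgenic T. cruzi replicating inside host cells; inhibitors lower the luminescence signal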
Streptokinase A = target: T5, Streptokinase A (Streptococcus pyogenes serotype M1, UniProt P10520); assay: viability-normalized secreted streptokinase activity reduction – plasminogen activation absorbance, OD405, dose response (AID 1914); type: functional, Streptococcus pyogenes M1 GAS;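 further: secreted streptokinase activity via plasminogen activation per viability signal from cell pellet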
T5 sequence (P10520 whole entry): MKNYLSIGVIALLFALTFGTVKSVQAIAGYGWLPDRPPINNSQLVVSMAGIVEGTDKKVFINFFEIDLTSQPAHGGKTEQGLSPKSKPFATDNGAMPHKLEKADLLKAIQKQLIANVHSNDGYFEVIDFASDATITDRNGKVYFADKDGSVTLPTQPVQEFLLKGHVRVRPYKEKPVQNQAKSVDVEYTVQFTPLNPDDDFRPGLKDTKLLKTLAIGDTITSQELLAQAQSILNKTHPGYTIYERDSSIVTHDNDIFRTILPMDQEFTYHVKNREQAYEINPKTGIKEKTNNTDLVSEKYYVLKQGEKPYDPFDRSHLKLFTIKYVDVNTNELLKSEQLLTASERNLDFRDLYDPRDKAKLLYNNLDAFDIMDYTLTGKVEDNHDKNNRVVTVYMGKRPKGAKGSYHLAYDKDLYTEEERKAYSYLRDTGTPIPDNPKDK

[15] = tested on: Streptococcus sp. 'group A'; assay: Streptococcus pyogenes SK(-)GAS viability under kanamycin – luminescence, BacTiterGlo, confirmation, counter-screen for streptokinase expression inhibitor project, dose response (AID 1900); type: functional, organism-based
[16] = NIH3T3 cell viability loss – ATP luminescence, mouse fibroblasts, counter-screen, dose response (AID 2010); type: functional, cell-based;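 further: cells exposed to compound for about 90 hours before reading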
Streptococcus = assay: GAS UMAA2166 growth inhibition – luminescence, BacTiterGlo, counter-screen for streptokinase expression inhibitor project, dose response (AID 1915); type: functional, organism-based;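 further: potency for reduction of bacterial viability or growth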

Voltage-dependent T-type calcium channel subunit alpha-1H, sequence (O95180 whole entry): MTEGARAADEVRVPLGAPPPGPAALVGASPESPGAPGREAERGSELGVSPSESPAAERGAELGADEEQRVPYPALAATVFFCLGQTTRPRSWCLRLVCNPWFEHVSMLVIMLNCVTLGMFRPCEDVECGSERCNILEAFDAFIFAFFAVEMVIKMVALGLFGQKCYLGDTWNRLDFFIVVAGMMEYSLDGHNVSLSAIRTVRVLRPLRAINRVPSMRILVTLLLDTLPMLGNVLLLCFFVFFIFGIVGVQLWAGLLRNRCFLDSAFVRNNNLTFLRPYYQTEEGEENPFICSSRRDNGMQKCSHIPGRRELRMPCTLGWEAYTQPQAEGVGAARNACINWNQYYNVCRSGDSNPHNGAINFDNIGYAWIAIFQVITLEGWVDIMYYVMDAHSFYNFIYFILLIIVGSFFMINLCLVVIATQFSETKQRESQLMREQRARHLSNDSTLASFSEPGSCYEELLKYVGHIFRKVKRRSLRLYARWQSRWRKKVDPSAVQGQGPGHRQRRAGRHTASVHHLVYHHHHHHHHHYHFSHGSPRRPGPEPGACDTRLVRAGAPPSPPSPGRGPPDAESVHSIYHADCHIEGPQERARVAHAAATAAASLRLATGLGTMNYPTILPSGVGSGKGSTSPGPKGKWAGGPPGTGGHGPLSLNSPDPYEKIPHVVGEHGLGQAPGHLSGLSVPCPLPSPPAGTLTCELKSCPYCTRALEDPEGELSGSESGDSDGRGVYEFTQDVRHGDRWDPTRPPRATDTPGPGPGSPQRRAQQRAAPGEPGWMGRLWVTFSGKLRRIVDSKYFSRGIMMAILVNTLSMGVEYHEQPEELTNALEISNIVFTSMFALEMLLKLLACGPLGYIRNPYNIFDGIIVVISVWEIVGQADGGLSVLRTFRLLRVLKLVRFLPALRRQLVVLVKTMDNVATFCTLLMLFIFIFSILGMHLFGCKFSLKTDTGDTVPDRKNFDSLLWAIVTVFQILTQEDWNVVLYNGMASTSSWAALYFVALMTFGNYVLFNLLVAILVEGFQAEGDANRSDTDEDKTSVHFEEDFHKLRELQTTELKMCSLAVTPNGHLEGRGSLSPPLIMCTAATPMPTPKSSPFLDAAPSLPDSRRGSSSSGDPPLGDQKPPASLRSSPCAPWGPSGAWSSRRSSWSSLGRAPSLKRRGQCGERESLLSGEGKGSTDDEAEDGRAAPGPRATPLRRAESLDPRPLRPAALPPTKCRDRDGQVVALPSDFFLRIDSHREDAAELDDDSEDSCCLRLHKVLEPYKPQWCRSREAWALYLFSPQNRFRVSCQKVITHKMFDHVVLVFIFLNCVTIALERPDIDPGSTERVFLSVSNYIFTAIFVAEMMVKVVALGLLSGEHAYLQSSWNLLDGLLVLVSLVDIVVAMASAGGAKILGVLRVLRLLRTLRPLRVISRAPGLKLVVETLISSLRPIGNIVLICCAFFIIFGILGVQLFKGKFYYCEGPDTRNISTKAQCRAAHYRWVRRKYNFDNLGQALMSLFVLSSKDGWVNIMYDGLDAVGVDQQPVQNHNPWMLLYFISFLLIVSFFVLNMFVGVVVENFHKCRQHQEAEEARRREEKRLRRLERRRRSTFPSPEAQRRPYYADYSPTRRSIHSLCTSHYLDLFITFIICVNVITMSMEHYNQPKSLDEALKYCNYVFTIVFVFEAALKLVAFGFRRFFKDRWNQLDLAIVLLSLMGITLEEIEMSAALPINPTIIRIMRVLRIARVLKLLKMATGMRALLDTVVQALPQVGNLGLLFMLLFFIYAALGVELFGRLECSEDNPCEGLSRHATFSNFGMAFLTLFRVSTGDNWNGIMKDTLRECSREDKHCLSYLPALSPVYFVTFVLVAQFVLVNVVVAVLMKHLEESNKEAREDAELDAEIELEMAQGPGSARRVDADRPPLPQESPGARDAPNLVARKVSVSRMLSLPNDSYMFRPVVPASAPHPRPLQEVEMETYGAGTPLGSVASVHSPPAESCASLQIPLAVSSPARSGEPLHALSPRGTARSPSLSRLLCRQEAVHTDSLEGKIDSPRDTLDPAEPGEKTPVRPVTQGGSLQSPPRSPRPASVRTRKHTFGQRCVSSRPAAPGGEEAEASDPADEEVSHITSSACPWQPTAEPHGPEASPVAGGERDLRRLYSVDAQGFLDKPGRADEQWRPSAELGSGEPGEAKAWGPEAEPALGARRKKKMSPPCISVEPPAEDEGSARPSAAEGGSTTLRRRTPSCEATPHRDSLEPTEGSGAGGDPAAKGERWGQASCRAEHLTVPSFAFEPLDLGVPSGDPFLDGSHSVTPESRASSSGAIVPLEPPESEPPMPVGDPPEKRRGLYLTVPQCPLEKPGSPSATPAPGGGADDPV

Cc1ccc(S(=O)(=O)c2nc(-c3ccccc3)oc2NCc2cccnc2)cc1
EC50 [1]: 8.55 µM (active)

COc1ccc(-c2c(-c3ccsc3)oc3ccc(N4CCOCC4)cc23)cn1
AC50 (Trypsin): 9.22 µM (active)

CN1CCN(C(=O)CSc2nc(-c3cccs3)cc(-c3cccs3)c2C#N)CC1
EC50 [2]: 9.41 µM (active) | EC50 [3]: 10 µM (active)

Cn1c(SCC(=O)NCc2ccc3c(c2)OCO3)nnc1C1COc2ccccc2O1 (stereo not drawn)
IC50 (Leucine aminopeptidase): < 1 µM (active)

CC1=NNC(=O)C1CCC(=O)N/N=C\c1ccc(Cl)c(Cl)c1 (stereo not drawn)
IC50 (Leucine aminopeptidase): 15 µM (active)

CCOc1ccc(NC(=O)CSc2nc(N)c(-c3ccccc3)c(=O)[nH]2)cc1
IC50 (Leucine aminopeptidase): 5.72 µM (active)

COc1ccccc1NS(=O)(=O)c1cc(N)ccc1N1CCCCC1
IC50 [4]: 72.5 µM (active)

Cc1cc(N2CCCCC2)nc2ccc(NC(=O)c3ccc(Br)o3)cc12
IC50 [5]: 3.3 µM (not active)

O=C(CCS(=O)(=O)c1cccs1)N1CCCC1
EC50 [6]: > 120 µM (not active) | EC50 [7]: > 120 µM (not active) | EC50 (H4): 17.8 µM (active) | IC50 [8]: > 64 µM (inactive)

O=C(Nc1ccccc1)c1nnn(Cc2ccccc2)c1NC(=O)C(F)(F)F
EC50 [1]: 4.59 µM (active)

O=C(NC1CCCCC1)N1CCS/C1=N\c1ccccc1
EC50 [1]: 7.51 µM (active)

C/C(=N\NC(=O)Cc1c(C)n[nH]c1O)c1ccc2ccccc2c1
IC50 (Leucine aminopeptidase): 14 µM (active)

O=C(Nc1cccnc1)c1sc(Nc2ccccc2F)nc1-c1ccccc1
EC50 [9]: 6.83 µM (active) | EC50 [10]: 6.48 µM (active) | EC50 [11]: 28.3 µM (not active)

Cn1c(N)c(C(=O)COC(=O)c2ccc(Cl)c(S(=O)(=O)N3CCCCC3)c2)c(=O)n(C)c1=O
IC50 [5]: 29.2 µM (not active)

COC(=O)c1[nH]c(C)c(C(=O)C2=C(O)C(=O)N(CCN(C)C)C2c2cccc(OC)c2OC)c1C (stereo not drawn)
IC50 (Coagulation factor XII): > 50 µM (inactive)

NC(=O)CSc1oc(-c2cccs2)nc1S(=O)(=O)c1ccccc1
EC50 [9]: 10.8 µM (not active) | EC50 [10]: 10.9 µM (inactive) | EC50 [11]: > 79.4 µM (not active)

CCc1cc(=O)oc2c3c(cc(OCC(=O)NCCCC(=O)O)c12)OC(C)(C)CC3
AC50 (Trypsin): 7.16 µM (active) | AC50 (CAAX prenyl protease 2): 12.1 µM (active)

Cn1c(NCCc2ccccc2)cc(=O)n(C)c1=O
EC50 (cells [12]): > 29.9 µM (inactive) | IC50 (Coagulation factor XII): > 50 µM (inactive) | IC50 (cells [13]): > 29.9 µM (inactive)

COc1cc(/C=N/NC(=O)C2c3ccccc3Oc3ccccc32)ccc1O
IC50 [8]: > 64 µM (inactive)

CC(C)c1ccc(C(=O)NCc2ccc(Cl)cc2)cc1
IC50 [8]: > 64 µM (inactive)

Cc1ccc(/C=N/NC(=O)c2nnn(-c3nonc3N)c2C(C)C)o1
AC50 (CAAX prenyl protease 2): 2.96 µM (active)

O=S(=O)(Nc1ccc(-c2csc(-c3ccccc3)n2)cc1)c1ccc(F)cc1
EC50 [14]: 2.45 µM (active) | EC50 (Streptokinase A): 8.48 µM (active) | EC50 [15]: 2.05 µM (active) | EC50 [16]: > 60 µM (not active) | IC50 [5]: 8.02 µM (not active) | EC50 (Streptococcus): 5.63 µM (active)
